Test results taken from PubChem BioAssay (NCI).
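Each compound was tested at five concentrations against cells in 96-well plates for 48 hours. At the TGI there is no net growth.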

What was measured:
Experiment in all cases: NCI-60 cell line screen, 48 h
786-0 renal = test system: 786-0 renal
UO-31 renal = test system: UO-31 renal
MOLT-4 leukemia = test system: MOLT-4 leukemia
RXF 393 renal = test system: RXF 393 renal
CAKI-1 renal = test system: CAKI-1 renal
OVCAR-4 ovarian = test system: OVCAR-4 ovarian
MALME-3M melanoma = test system: MALME-3M melanoma
COLO 205 colon = test system: COLO 205 colon
UACC-62 melanoma = test system: UACC-62 melanoma
MCF7 breast = test system: MCF7 breast
SF-295 CNS = test system: SF-295 CNS
HL-60(TB) leukemia = test system: HL-60(TB) leukemia
SNB-19 CNS = test system: SNB-19 CNS
PC-3 prostate = test system: PC-3 prostate
OVCAR-5 ovarian = test system: OVCAR-5 ovarian
NCI-H460 lung = test system: NCI-H460 lung
RPMI-8226 leukemia = test system: RPMI-8226 leukemia
SK-MEL-28 melanoma = test system: SK-MEL-28 melanoma
ACHN renal = test system: ACHN renal
T-47D breast = test system: T-47D breast
OVCAR-3 ovarian = test system: OVCAR-3 ovarian
HT29 colon = test system: HT29 colon
A498 renal = test system: A498 renal
SW-620 colon = test system: SW-620 colon
OVCAR-8 ovarian = test system: OVCAR-8 ovarian
M14 melanoma = test system: M14 melanoma
MDA-N = test system: MDA-N
BT-549 breast = test system: BT-549 breast
MDA-MB-435 = test system: MDA-MB-435
HCT-15 colon = test system: HCT-15 colon
IGROV1 ovarian = test system: IGROV1 ovarian
SNB-75 CNS = test system: SNB-75 CNS
K-562 leukemia = test system: K-562 leukemia
A549 NSCLC = test system: A549 NSCLC
HOP-62 NSCLC = test system: HOP-62 NSCLC
SF-539 CNS = test system: SF-539 CNS
SN12C renal = test system: SN12C renal
SK-MEL-5 melanoma = test system: SK-MEL-5 melanoma
DU-145 prostate = test system: DU-145 prostate
U251 CNS = test system: U251 CNS
HS 578T breast = test system: HS 578T breast
HOP-92 NSCLC = test system: HOP-92 NSCLC
HCC-2998 colon = test system: HCC-2998 colon
SF-268 CNS = test system: SF-268 CNS
SR leukemia = test system: SR leukemia
EKVX NSCLC = test system: EKVX NSCLC
HCT-116 colon = test system: HCT-116 colon
NCI-H23 lung = test system: NCI-H23 lung
NCI-H226 lung = test system: NCI-H226 lung
NCI/ADR-RES ovarian = test system: NCI/ADR-RES ovarian
KM12 colon = test system: KM12 colon
LOX IMVI melanoma = test system: LOX IMVI melanoma
UACC-257 melanoma = test system: UACC-257 melanoma
NCI-H522 lung = test system: NCI-H522 lung
MDA-MB-231 breast = test system: MDA-MB-231 breast
CCRF-CEM leukemia = test system: CCRF-CEM leukemia
SK-MEL-2 melanoma = test system: SK-MEL-2 melanoma
TK-10 renal = test system: TK-10 renal
SK-OV-3 ovarian = test system: SK-OV-3 ovarian

In the case of `CCOC(=O)c1cc2cc([N+](=O)[O-])ccc2oc1=O`, the TGI (786-0 renal) is reported as > 100 µM, the TGI (UO-31 renal) is reported as > 100 µM and the TGI (MOLT-4 leukemia) is reported as > 100 µM. For the same compound, the TGI (RXF 393 renal) was > 100 µM, the TGI (CAKI-1 renal) was > 100 µM and the TGI (OVCAR-4 ovarian) was > 100 µM. For the same compound, the TGI (MALME-3M melanoma) was > 100 µM, the TGI (COLO 205 colon) was > 100 µM and the TGI (UACC-62 melanoma) was > 100 µM. The TGI (MCF7 breast) was > 100 µM, the TGI (SF-295 CNS) was > 100 µM and the TGI (HL-60(TB) leukemia) was > 100 µM. The TGI (SNB-19 CNS) was > 100 µM, the TGI (PC-3 prostate) was > 100 µM and the TGI (OVCAR-5 ovarian) was > 100 µM. For the same compound, the TGI (NCI-H460 lung) was > 100 µM, the TGI (RPMI-8226 leukemia) was > 100 µM and the TGI (SK-MEL-28 melanoma) was > 100 µM. For the same compound, the TGI (ACHN renal) was > 100 µM, the TGI (T-47D breast) was > 100 µM and the TGI (OVCAR-3 ovarian) was > 100 µM. The TGI (HT29 colon) was > 100 µM, the TGI (A498 renal) was > 100 µM and the TGI (SW-620 colon) was > 100 µM. The TGI (OVCAR-8 ovarian) was > 100 µM, the TGI (M14 melanoma) was > 100 µM and the TGI (MDA-N) was > 100 µM. For the same compound, the TGI (BT-549 breast) was > 100 µM, the TGI (MDA-MB-435) was > 100 µM and the TGI (HCT-15 colon) was > 100 µM. The TGI (IGROV1 ovarian) was > 100 µM, the TGI (SNB-75 CNS) was > 100 µM and the TGI (K-562 leukemia) was > 100 µM. The TGI (A549 NSCLC) was > 100 µM, the TGI (HOP-62 NSCLC) was > 100 µM and the TGI (SF-539 CNS) was > 100 µM. The TGI (SN12C renal) was > 100 µM, the TGI (SK-MEL-5 melanoma) was > 100 µM and the TGI (DU-145 prostate) was > 100 µM. For the same compound, the TGI (U251 CNS) was > 100 µM, the TGI (HS 578T breast) was > 100 µM and the TGI (HOP-92 NSCLC) was > 100 µM. For the same compound, the TGI (HCC-2998 colon) was > 100 µM, the TGI (SF-268 CNS) was > 100 µM and the TGI (SR leukemia) was > 100 µM. For the same compound, the TGI (EKVX NSCLC) was > 100 µM, the TGI (HCT-116 colon) was > 100 µM and the TGI (NCI-H23 lung) was > 100 µM. For the same compound, the TGI (NCI-H226 lung) was > 100 µM, the TGI (NCI/ADR-RES ovarian) was > 100 µM and the TGI (KM12 colon) was > 100 µM. For the same compound, the TGI (LOX IMVI melanoma) was > 100 µM, the TGI (UACC-257 melanoma) was > 100 µM and the TGI (NCI-H522 lung) was > 100 µM. The TGI (MDA-MB-231 breast) was > 100 µM and the TGI (CCRF-CEM leukemia) was > 100 µM.

In the case of `CCn1c2ccccc2c2cc(NC(=O)c3c(C)[nH]c(=O)[nH]c3=S)ccc21`, the TGI (UO-31 renal) is reported as > 100 µM, the TGI (MOLT-4 leukemia) is reported as > 100 µM and the TGI (RXF 393 renal) is reported as > 100 µM. For the same compound, the TGI (CAKI-1 renal) was > 100 µM, the TGI (OVCAR-4 ovarian) was > 100 µM and the TGI (MALME-3M melanoma) was > 100 µM. The TGI (COLO 205 colon) was 46.3 µM, the TGI (UACC-62 melanoma) was > 100 µM and the TGI (SK-MEL-2 melanoma) was > 100 µM. The TGI (MCF7 breast) was > 100 µM, the TGI (SF-295 CNS) was > 100 µM and the TGI (HL-60(TB) leukemia) was > 100 µM. The TGI (SNB-19 CNS) was > 100 µM, the TGI (PC-3 prostate) was > 100 µM and the TGI (OVCAR-5 ovarian) was 68.2 µM. For the same compound, the TGI (NCI-H460 lung) was > 100 µM, the TGI (RPMI-8226 leukemia) was > 100 µM and the TGI (SK-MEL-28 melanoma) was > 100 µM. For the same compound, the TGI (T-47D breast) was > 100 µM, the TGI (OVCAR-3 ovarian) was > 100 µM and the TGI (HT29 colon) was > 100 µM. For the same compound, the TGI (A498 renal) was > 100 µM, the TGI (SW-620 colon) was > 100 µM and the TGI (OVCAR-8 ovarian) was > 100 µM. The TGI (M14 melanoma) was 82.2 µM, the TGI (MDA-N) was > 100 µM and the TGI (TK-10 renal) was > 100 µM. For the same compound, the TGI (BT-549 breast) was > 100 µM, the TGI (MDA-MB-435) was 84 µM and the TGI (HCT-15 colon) was > 100 µM. The TGI (SNB-75 CNS) was > 100 µM, the TGI (K-562 leukemia) was > 100 µM and the TGI (HOP-62 NSCLC) was > 100 µM. For the same compound, the TGI (SN12C renal) was > 100 µM, the TGI (SK-MEL-5 melanoma) was > 100 µM and the TGI (DU-145 prostate) was > 100 µM. For the same compound, the TGI (U251 CNS) was > 100 µM, the TGI (HS 578T breast) was > 100 µM and the TGI (HOP-92 NSCLC) was > 100 µM. The TGI (HCC-2998 colon) was > 100 µM, the TGI (SR leukemia) was > 100 µM and the TGI (HCT-116 colon) was > 100 µM. For the same compound, the TGI (SK-OV-3 ovarian) was > 100 µM, the TGI (NCI-H23 lung) was > 100 µM and the TGI (NCI-H226 lung) was > 100 µM. For the same compound, the TGI (NCI/ADR-RES ovarian) was > 100 µM, the TGI (KM12 colon) was 64.5 µM and the TGI (LOX IMVI melanoma) was > 100 µM. The TGI (UACC-257 melanoma) was > 100 µM, the TGI (MDA-MB-231 breast) was 58.1 µM and the TGI (CCRF-CEM leukemia) was > 100 µM.
